pIC50: −log10 of the molar value. Where a name gives a salt, the structure may show the parent alone. Read-outs that look alike come from different tables or passages of the source.
What was measured:
[1] = molecular target: PI3Kδ (p110δ/p85α) Recombinant Human Protein (Homo sapiens (Human), UniProt O00329); assay: PI3Kδ scintillation proximity assay; assay type: biochemical; settings: 2 μM ATP, 20 μM PIP2
[2] = system: Phosphorylated Ribosomal Protein S6 (RPS6) in THP-1 cells; assay: THP-1 RPS6 ELISA assay; assay type: cell-based, human; settings: 10 nM MCP-1, read-out: PI3Kγ_THP1_RPS6_ELISA IC50
[3] = molecular target: PI3Kγ (p110γ) Recombinant Human Protein (Homo sapiens (Human), UniProt P48736); assay: PI3K-γ scintillation proximity assay; assay type: biochemical; settings: 2 μM ATP, 20 μM PIP2
Sequence of PI3Kγ (p110γ) Recombinant Human Protein (P48736 whole entry): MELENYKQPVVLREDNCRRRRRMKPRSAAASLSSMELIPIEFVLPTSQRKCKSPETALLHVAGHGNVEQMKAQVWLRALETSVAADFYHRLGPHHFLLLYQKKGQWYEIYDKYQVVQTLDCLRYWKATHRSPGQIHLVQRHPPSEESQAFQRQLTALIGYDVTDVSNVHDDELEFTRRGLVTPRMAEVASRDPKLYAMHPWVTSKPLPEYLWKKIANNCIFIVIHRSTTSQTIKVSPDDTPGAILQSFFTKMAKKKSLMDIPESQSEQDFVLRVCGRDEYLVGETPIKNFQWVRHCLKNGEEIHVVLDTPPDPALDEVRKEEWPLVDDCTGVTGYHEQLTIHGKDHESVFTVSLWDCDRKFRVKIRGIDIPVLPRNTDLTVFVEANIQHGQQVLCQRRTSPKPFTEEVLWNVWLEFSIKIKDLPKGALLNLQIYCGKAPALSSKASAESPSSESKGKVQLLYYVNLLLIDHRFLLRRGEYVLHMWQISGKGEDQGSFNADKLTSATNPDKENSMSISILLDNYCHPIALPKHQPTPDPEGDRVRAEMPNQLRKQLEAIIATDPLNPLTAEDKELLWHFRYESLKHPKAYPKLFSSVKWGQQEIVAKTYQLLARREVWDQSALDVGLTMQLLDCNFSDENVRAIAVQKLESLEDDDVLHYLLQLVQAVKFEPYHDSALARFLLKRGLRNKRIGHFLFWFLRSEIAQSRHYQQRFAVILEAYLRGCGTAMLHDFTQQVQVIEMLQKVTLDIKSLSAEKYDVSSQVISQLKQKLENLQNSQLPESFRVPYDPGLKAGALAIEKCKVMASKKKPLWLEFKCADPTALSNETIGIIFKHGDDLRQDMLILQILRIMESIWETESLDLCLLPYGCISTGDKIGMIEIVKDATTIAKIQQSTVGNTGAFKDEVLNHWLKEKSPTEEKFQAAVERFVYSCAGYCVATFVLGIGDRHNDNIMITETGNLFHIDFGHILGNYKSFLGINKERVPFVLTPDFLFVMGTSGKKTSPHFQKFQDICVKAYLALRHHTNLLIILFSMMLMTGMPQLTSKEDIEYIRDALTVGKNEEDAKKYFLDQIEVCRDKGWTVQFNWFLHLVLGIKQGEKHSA

[4] = Homo sapiens, THP-1, THP-1 cells

Sequence of PI3Kδ (p110δ/p85α) Recombinant Human Protein (O00329 whole entry): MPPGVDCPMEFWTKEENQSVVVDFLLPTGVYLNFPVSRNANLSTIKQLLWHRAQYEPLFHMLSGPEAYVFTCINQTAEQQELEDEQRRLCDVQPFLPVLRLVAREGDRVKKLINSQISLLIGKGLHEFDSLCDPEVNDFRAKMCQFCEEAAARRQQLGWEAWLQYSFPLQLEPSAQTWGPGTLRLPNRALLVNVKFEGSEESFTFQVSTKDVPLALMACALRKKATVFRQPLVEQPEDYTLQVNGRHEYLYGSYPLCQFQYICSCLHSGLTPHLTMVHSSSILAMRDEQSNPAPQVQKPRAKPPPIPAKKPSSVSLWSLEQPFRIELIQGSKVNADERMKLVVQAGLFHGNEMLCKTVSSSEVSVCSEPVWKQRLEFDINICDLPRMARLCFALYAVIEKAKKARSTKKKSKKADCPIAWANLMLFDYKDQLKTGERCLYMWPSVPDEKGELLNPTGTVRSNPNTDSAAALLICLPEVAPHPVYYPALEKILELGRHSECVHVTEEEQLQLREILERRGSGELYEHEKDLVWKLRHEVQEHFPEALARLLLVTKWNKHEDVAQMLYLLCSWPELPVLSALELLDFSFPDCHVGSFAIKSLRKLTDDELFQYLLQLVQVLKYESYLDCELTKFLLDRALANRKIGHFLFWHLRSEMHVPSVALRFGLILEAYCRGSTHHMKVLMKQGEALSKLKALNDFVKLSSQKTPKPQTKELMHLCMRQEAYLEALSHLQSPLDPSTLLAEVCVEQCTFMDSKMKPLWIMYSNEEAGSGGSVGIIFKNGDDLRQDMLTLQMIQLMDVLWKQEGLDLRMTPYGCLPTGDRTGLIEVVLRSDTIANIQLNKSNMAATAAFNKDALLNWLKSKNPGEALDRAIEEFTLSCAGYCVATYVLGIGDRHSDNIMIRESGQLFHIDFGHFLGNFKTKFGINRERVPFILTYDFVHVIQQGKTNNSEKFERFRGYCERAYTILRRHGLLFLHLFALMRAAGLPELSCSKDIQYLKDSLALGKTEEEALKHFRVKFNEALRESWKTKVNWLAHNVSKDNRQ
Sequence of PI3Kδ (p110δ/p85α) Recombinant Human Protein (P27986 whole entry partner): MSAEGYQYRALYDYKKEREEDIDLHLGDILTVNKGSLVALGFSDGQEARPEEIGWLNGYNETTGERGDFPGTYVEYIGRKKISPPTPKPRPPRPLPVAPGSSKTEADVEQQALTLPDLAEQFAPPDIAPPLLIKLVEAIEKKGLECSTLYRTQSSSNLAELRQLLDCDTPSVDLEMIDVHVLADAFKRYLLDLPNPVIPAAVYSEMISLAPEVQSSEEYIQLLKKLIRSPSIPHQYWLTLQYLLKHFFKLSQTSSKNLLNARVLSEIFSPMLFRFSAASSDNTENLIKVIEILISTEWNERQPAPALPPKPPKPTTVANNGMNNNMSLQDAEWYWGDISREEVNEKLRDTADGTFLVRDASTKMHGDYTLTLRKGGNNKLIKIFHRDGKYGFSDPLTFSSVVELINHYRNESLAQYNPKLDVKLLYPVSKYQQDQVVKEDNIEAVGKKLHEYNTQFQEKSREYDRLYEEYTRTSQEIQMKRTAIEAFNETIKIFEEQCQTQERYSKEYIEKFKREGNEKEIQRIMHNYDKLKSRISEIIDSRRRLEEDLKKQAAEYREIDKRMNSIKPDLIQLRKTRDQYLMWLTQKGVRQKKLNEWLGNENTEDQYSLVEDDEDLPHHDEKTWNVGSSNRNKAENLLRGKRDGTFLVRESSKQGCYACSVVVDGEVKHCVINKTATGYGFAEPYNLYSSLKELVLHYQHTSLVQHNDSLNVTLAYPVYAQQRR

Row | pIC50 [1] | pIC50 [2, 4] | pIC50 [3] | pIC50 ([2]; THP-1 cells) | Compound
1 | > 6.30 | < 6.00 | > 7.00 |  | COC(=O)C1CCN(c2c(C(C)NC(=O)c3c(N)nn4cccnc34)cc(Cl)c3cn[nH]c23)C1 (stereo not drawn) [Example 102, Methyl 1-[6-(1-{[(2-aminopyrazolo[1,5-a]pyrimidin-3-yl)carbonyl]amino}ethyl)-4-chloro-2H-indazol-7-yl]pyrrolidine-3-carboxylate trifluoroacetate]
2 | > 7.00 | > 6.30 | > 7.00 |  | CC(NC(=O)c1c(N)nn2cccnc12)c1cc(Cl)c2cn[nH]c2c1N1CCC[C@H](NS(C)(=O)=O)C1 (stereo partly drawn) [Example 105, 2-Amino-N-[1-(4-chloro-7-{(3S)-3-[(methylsulfonyl)amino]piperidin-1-yl}-2H-indazol-6-yl)ethyl]pyrazolo[1,5-a]pyrimidine-3-carboxamide trifluoroacetate]
3 | > 7.00 | > 6.30 | > 7.00 |  | CC(NC(=O)c1c(N)nn2cccnc12)c1cc(Cl)c2ccnn2c1N1CCCS(=O)(=O)CC1 (stereo not drawn) [Example 109, 2-Amino-N-{1-[4-chloro-7-(1,1-dioxido-1,4-thiazepan-4-yl)pyrazolo[1,5-a]pyridin-6-yl]ethyl}pyrazolo[1,5-a]pyrimidine-3-carboxamide trifluoroacetate]
4 | > 7.00 | > 6.30 | > 7.00 |  | CC(NC(=O)c1c(N)nn2cccnc12)c1cc(Cl)c2ccnn2c1N1CCNS(=O)(=O)CC1 (stereo not drawn) [Example 110, 2-Amino-N-{1-[4-chloro-7-(1,1-dioxido-1,2,5-thiadiazepan-5-yl)pyrazolo[1,5-a]pyridin-6-yl]ethyl}pyrazolo[1,5-a]pyrimidine-3-carboxamide trifluoroacetate]
5 | > 7.00 | > 6.30 | > 7.00 |  | CC(NC(=O)c1c(N)nn2cccnc12)c1cc(Cl)c2ccnn2c1N1CCS(=O)(=O)C(C)(C)C1 (stereo not drawn) [Example 111, 2-Amino-N-{1-[4-chloro-7-(2,2-dimethyl-1,1-dioxidothiomorpholin-4-yl)pyrazolo[1,5-a]pyridin-6-yl]ethyl}pyrazolo[1,5-a]pyrimidine-3-carboxamide trifluoroacetate]
6 | > 7.00 | > 6.30 | > 7.00 |  | CC(NC(=O)c1c(N)nn2cccnc12)c1cc(Cl)c2c(Cl)cnn2c1N1CCS(=O)(=O)C(C)C1 (stereo not drawn) [Example 112A, 2-Amino-N-{1-[3,4-dichloro-7-(2-methyl-1,1-dioxidothiomorpholin-4-yl)pyrazolo[1,5-a]pyridin-6-yl]ethyl}pyrazolo[1,5-a]pyrimidine-3-carboxamide trifluoroacetate]
7 | > 7.00 | > 6.30 | > 7.00 |  | CC(NC(=O)c1c(N)nn2cccnc12)c1cc(Cl)c2c(Cl)cnn2c1N1CCS(=O)(=O)CC1 (stereo not drawn) [Example 113, 2-Amino-N-{1-[3,4-dichloro-7-(1,1-dioxidothiomorpholin-4-yl)pyrazolo[1,5-a]pyridin-6-yl]ethyl}pyrazolo[1,5-a]pyrimidine-3-carboxamide trifluoroacetate]
8 | > 7.00 | > 6.30 | > 7.00 |  | CC(NC(=O)c1c(N)nn2cccnc12)c1cc(Cl)c2c(Cl)cnn2c1N1CCCS(=O)(=O)CC1 (stereo not drawn) [Example 114, 2-Amino-N-{1-[3,4-dichloro-7-(1,1-dioxido-1,4-thiazepan-4-yl)pyrazolo[1,5-a]pyridin-6-yl]ethyl}pyrazolo[1,5-a]pyrimidine-3-carboxamide trifluoroacetate]
9 | > 7.00 | > 6.30 | > 7.00 |  | CC(NC(=O)c1c(N)nn2cccnc12)c1cc(Cl)c2c(Cl)cnn2c1N1CCNS(=O)(=O)CC1 (stereo not drawn) [Example 115, 2-Amino-N-{1-[3,4-dichloro-7-(1,1-dioxido-1,2,5-thiadiazepan-5-yl)pyrazolo[1,5-a]pyridin-6-yl]ethyl}pyrazolo[1,5-a]pyrimidine-3-carboxamide trifluoroacetate]
10 | > 7.00 | > 6.30 | > 7.00 |  | CC(NC(=O)c1c(N)nn2cccnc12)c1cc(Cl)c2c(Cl)cnn2c1N1CCS(=O)(=O)C(C)(C)C1 (stereo not drawn) [Example 116, 2-Amino-N-{1-[3,4-dichloro-7-(2,2-dimethyl-1,1-dioxidothiomorpholin-4-yl)pyrazolo[1,5-a]pyridin-6-yl]ethyl}pyrazolo[1,5-a]pyrimidine-3-carboxamide trifluoroacetate]
11 | > 6.30 |  | > 7.00 | < 6.00 | COc1cncc(-c2c(C(C)NC(=O)c3c(N)nn4cccnc34)cc(Cl)c3cncn23)c1 (stereo not drawn) [Example 134, 2-Amino-N-{1-[8-chloro-5-(5-methoxypyridin-3-yl)imidazo[1,5-d]pyridin-6-yl]ethyl}pyrazolo[1,5-a]pyrimidine-3-carboxamide trifluoroacetate salt]
12 | > 6.30 | > 6.30 | > 7.00 |  | COC1CCN(c2c(C(C)NC(=O)c3c(N)nn4cccnc34)cc(Cl)c3cncn23)C1 (stereo not drawn) [Example 144, 2-Amino-N-{1-[8-chloro-5-(3-methoxypyrrolidin-1-yl)imidazo[1,5-a]pyridin-6-yl]ethyl}pyrazolo[1,5-a]pyrimidine-3-carboxamide trifluoroacetate salt]
13 | > 6.30 | > 6.30 | > 6.30 |  | CC(NC(=O)c1c(N)nn2cccnc12)c1cc(Cl)c2cncn2c1N1CCC(O)C1 (stereo not drawn) [Example 148, 2-Amino-N-{1-[8-chloro-5-(3-hydroxy-pyrrolidin-1-yl)imidazo[1,5-a]pyridin-6-yl]ethyl}pyrazolo [1,5-a]pyrimidine-3-carboxamide trifluoroacetate salt]
14 | > 7.00 |  | > 7.00 | > 6.30 | CC(NC(=O)c1c(N)nn2cccnc12)c1cc(Cl)c2cncn2c1N1C[C@@H](O)C[C@H](O)C1 (stereo partly drawn) [Example 150, 2-Amino-N-(1-{8-chloro-5-[(3S,5S)-3,5-dihydroxypiperidin1-yl]imidazo[1,5-a]pyridin-6-yl}ethyl)pyrazol[1,5-a]pyrimidine-3-carboxamide trifluoroacetate salt]
15 | > 7.00 |  | > 7.00 | > 6.30 | CC(NC(=O)c1c(N)nn2cccnc12)c1cc(Cl)c2cncn2c1N1CCCC(O)C1 (stereo not drawn) [Example 152, 2-Amino-N-(1-{8-chloro-5-[(3)-3-hydroxypiperidin-1-yl]imidazo[1,5-a]pyridin-6-yl}ethyl)pyrazolo[1,5-a]pyrimidine-3-carboxamide trifluoroacetate salt]
16 | > 7.00 |  | > 7.00 | > 6.30 | CC(NC(=O)c1c(N)nn2cccnc12)c1cc(Cl)c2cncn2c1N1CCC(C#N)CC1 (stereo not drawn) [Example 153, 2-Amino-N-{1-[8-chloro-5-(4-cyanopiperidin-1-yl)imidazo[1.5-a]pyridin-6-yl]ethyl}pyrazolo[1,5-a]pyrimidine-3-carboxamide trifluoroacetate salt]
17 | > 7.00 | > 6.30 | > 7.00 |  | CC(NC(=O)c1c(N)nn2cccnc12)c1cc(Cl)c2cncn2c1N1C[C@H](O)C[C@H](O)C1 (stereo partly drawn) [Example 155B, 2-Amino-N-(1-{8-chloro-5-[(3R,5S)-3,5-dihydroxypiperidin-1-yl]imidazo[1,5-a]pyridin-6-yl}ethyl)pyrazolo[1,5-a]pyrimidine-3-carboxamide trifluoroacetate salt]
18 | > 5.70 |  | > 7.00 | > 6.00 | CC(NC(=O)c1c(N)nn2cccnc12)c1cc(Cl)c2cncn2c1N1C[C@@H](O)C[C@@H](F)C1 (stereo partly drawn) [Example 156, 2-Ammo-N-(1-{8-chloro-5-[(3R,5S)-3-fluoro-5-hydroxypiperidin-1-yl]imidazo[1,5-a]pyridin-6-yl}ethyl)pyrazolo[1,5-a]pyrimidine-3-carboxamide trifluoroacetate salt]
19 | > 6.30 | > 6.00 | > 7.00 |  | CC(NC(=O)c1c(N)nn2cccnc12)c1cc(Cl)c2cncn2c1N1C[C@H](O)C[C@H](C#N)C1 (stereo partly drawn) [Example 157, 2-Amino-N-(1-{8-chloro-5-[(3S,5R)-3-cyano-5-hydroxypiperidin-1-yl]imidazo[1,5-a]pyridin-6-yl}ethyl)pyrazolo[1,5-a]pyrimidine-3-carboxamide trifluoroacetate salt]
20 | > 5.70 | > 6.30 | > 7.00 |  | CC(NC(=O)c1c(N)nn2cccnc12)c1cc(Cl)c2c(C#N)ncn2c1N1CCS(=O)(=O)C(C)C1 (stereo not drawn) [Example 165, 2-Amino-N-(1-(8-chloro-1-cyano-5-(2-methyl-1,1-dioxidothiomorpholino)imidazo[1,5-a]pyridin-6-yl)ethyl)pyrazolo[1,5-a]pyrimidine-3-carboxamide trifluoroacetate salt]

Row | Compound | pIC50 [1] | pIC50 [2, 4] | pIC50 [3] | pIC50 ([2]; THP-1 cells)
21 | CC(=O)N[C@H]1CCCN(c2c(C(C)NC(=O)c3c(N)nn4cccnc34)cc(Cl)c3cn[nH]c23)C1 (stereo partly drawn) [Example 104, N-(1-(7-((S)-3-Acetamidopiperidin-1-yl)-4-chloro-1H-indazol-6-yl)ethyl)-2-aminopyrazolo[1,5-a]pyrimidine-3-carboxamide trifluoroacetate] | > 7.00 | > 6.30 | > 7.00 | 
22 | CCOC(=O)C1CCN(c2c(C(C)NC(=O)c3c(N)nn4cccnc34)cc(Cl)c3cn[nH]c23)CC1 (stereo not drawn) [Example 106, Ethyl 1-[6-(1-{[(2-aminopyrazolo[1,5-a]pyrimidin-3-yl)carbonyl]amino}ethyl)-4-chloro-2H-indazol-7-yl]piperidine-4-carboxylate trifluoroacetate] | > 6.30 | < 6.00 | > 7.00 | 
23 | CNC(=O)C1CCN(c2c(C(C)NC(=O)c3c(N)nn4cccnc34)cc(Cl)c3cn[nH]c23)CC1 (stereo not drawn) [Example 107, 2-Amino-N-[1-(4-chloro-7-{4-[(methylamino)carbonyl]piperidin-1-yl}-2H-indazol-6-yl)ethyl]pyrazolo[1,5-a]pyrimidine-3-carboxamide trifluoroacetate] | > 6.30 | > 6.30 | > 7.00 | 

Source: patent US10065963B2 (Incyte Corporation, priority 2015, dated 2018)
